Data published in ChEMBL document CHEMBL1240453, “Substituted dihydronaphthalenes as efflux pump inhibitors of Staphylococcus aureus” (2010).
Converted amounts (≈) assume the structure as drawn.

How the values were obtained:
[1] = target: T1, Quinolone resistance protein NorA (Staphylococcus aureus) (UniProt P0A0J7); details: 1199B
T1 sequence (whole entry): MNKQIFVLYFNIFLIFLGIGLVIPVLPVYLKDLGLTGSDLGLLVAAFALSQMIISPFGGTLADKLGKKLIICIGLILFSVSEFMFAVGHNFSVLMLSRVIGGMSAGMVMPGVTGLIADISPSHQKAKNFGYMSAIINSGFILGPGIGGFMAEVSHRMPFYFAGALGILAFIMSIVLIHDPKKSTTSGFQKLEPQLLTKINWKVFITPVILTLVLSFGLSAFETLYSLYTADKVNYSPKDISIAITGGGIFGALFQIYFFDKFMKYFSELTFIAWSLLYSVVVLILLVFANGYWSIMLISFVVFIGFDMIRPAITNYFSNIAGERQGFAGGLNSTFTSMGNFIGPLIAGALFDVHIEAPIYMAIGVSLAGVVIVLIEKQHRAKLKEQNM
Description: Inhibition of Staphylococcus aureus 1199B norA efflux pump by spectrophotometry

[2] = system: Staphylococcus aureus; experiment: microbe, parasite or virus in culture; details: Staphylococcus aureus, 1199, 24 h
Description: Antimicrobial activity against Staphylococcus aureus 1199 after 24 hrs

[3] = system: Staphylococcus aureus; experiment: microbe, parasite or virus in culture; details: 1199B, 24 h
Description: Antimicrobial activity against Staphylococcus aureus 1199B after 24 hrs

SMILES | MEC [1] [µg/mL] | MIC [2] [µg/mL] | MIC [3] [µg/mL]
COC(=O)[C@H]1[C@H]2C[C@@H]3c4[nH]c5cc(OC)ccc5c4CCN3C[C@H]2C[C@@H](OC(=O)c2cc(OC)c(OC)c(OC)c2)[C@@H]1OC | 25 | – | –
O=C(O)c1cn(C2CC2)c2cc(N3CCNCC3)c(F)cc2c1=O [CIPROFLOXACIN] | – | 0.25 (≈ 0.754 µM) | 8 (≈ 24.1 µM)
